Assay results reported in patent US20240287054A1, “COMPOUNDS THAT BIND NON-CANONICAL G-QUADRUPLEX STRUCTURES AND METHODS OF MAKING AND USING THE SAME” (The U.S.A., as Represented by the Secretary, Department of …, priority 2021, published 2024).

Key:
[1] = molecular target: MYCN hairpin-G4 DNA; test: FIA using compound fluorescence (Ex 340/Em 500 nm), titration with unlabeled MYCN G4 DNA; assay type: binding, human; conditions: 100 nM compound titrated with folded unlabeled MYCN G4
In short: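 Compound at 100 nM final (5% DMSO) was titrated with serially diluted, pre-annealed unlabeled MYCN G4 DNA and incubated 30 min at room temperature. Intrinsic compound fluorescence (Ex 340/Em 500 nm) was normalised, and affinity was fitted to a one-site total model.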

[2] = test system: MANGO II RNA G4; test: SPR binding to MANGO II RNA G4; conditions: duplex-containing RNA G4
[3] = test system: 12 different G4 oligos as well as non-G4 oligos (dsDNA and ssDNA); test: Small-scale DNA G4 microarray binding selectivity; conditions: B33 at 2.5 μM
Description: In this example, a small-scale DNA G4 microarray containing 12 different G4 oligos as well as non-G4 oligos (dsDNA and ssDNA) was fabricated and tested (Table 4). To start with, a SA-coated glass surface was prepared. An amino-functionalized glass slide was firstly modified with a solution of N, N′-disuccinimidyl carbonate (DSC, 1.0 M) and N, N-diisopropylethylamine (DIPEA, 1.0 M) in DMF overnight at room temperature. After being washed successively with EtOH, Milli-Q water (5 min each) and dried with N2 gas, the slide was incubated with 1 mg/mL of SA solution for 12 h (overnight) in a 4° C. fridge, followed by blocking the surface with EA buffer for 30 minutes. Then, the slide was rinsed with PBS buffer and Milli-Q water, and dried b centrifugation (1,700 g, 2 min).
In parallel, biotin-labeled DNA/RNA oligos were prepared in annealing buffer resulting in 5 μM stock solutions, followed by annealing (according to above methods). Then all the oligo solutions were transferred into a 384-well plate. Next, the microarray printing was conducted by a robotic arrayer (Nanoprint, Arrayit, USA) with a humidity of 60%. After the microarray was fabricated, the slide was placed in a slide box with a piece of wet Kimwipe tissue and incubated at 4° C. for 2 h.
To incubate with the fluorescent compounds (compound B33, thiazole orange (“TO”), and amsacrine), the slide was thoroughly rinsed with PBST, PBS, and water to remove the unbounded oligos. Then, the slide was dried by centrifugation (1,700 g, 2 min) and quickly assembled with microarray gaskets (Agilent, USA), followed by loading the compound solutions. After 1 h incubation, the slide was washed and dried with the above-mentioned method. Finally, the microarray slide was imaged by a fluorescence scanner (Mapix) using green channel and the fluorescence intensities were quantified.

[4] = test system: dsDNA; test: SPR binding to dsDNA; conditions: up to 5 μM compound injection
[5] = molecular target: five 5′Cy5-labeled G4s from cancer-relevant genes (BCL2, KRAS, mTOR, NRAS, telomeric DNA); test: FIA selectivity profiling with five other 5′Cy5-labeled G4s; assay type: binding; conditions: five 5′Cy5-labeled G4s other than MYCN
[6] = molecular target: MYCN G4 DNA; test: Microscale thermophoresis (MST) with 3′-Cy5 MYCN G4 DNA; design: species or system human; conditions: 3′-Cy5 labeled MYCN G4, 1:1 binding model; read-out: binding affinity by MST
Description: Microscale thermophoresis (MST). MST experiments were carried out on a Monolith NT.115 system (NanoTemper Technologies). The 3′-Cy5 MYCN G4 DNA solutions were prepared in 10 mM Tris (pH 7.5), 100 mM KCl, 0.005% T20, annealed (according to the above-mentioned method), and diluted to 100 nM (2×). The DMSO solutions of small molecules were prepared in the buffer with a series 1:1 dilution, resulting in 2× of designed concentrations (10% DMSO). Then, DNA samples were 1:1 (v/v) mixed with corresponding small molecule solutions, resulting in 50 nM DNA and 5% DMSO. Finally, MST signals were detected in triplicate capillaries, and the dissociation constant was determined by fitting the curve using a single-site model (MO.Affinity Analysis v2.3).

[7] = test system: MYCN mRNA; test: qRT-PCR of MYCN mRNA in NBEB cells; assay type: cell-based; conditions: NBEB cells, 24, 36, 48 h, higher concentrations
Description: To examine the effects of G4-binding compounds on NBEB cells, live-cell imaging was performed using an Incucyte interface (described below). NBEB (5K/well), cells were seeded into 96-well plates in triplicate, treated with compound MY-8 at various concentrations (0-45 μM), and cultured until control wells reached confluence. For RT-qPCR and western blotting, NBEB (300K) cells were treated with MY-8 in 6-well dish for 48 h. To examine the time-dependent decrease in MYCNOs expression, cells were treated with 22.5 μM and 45 μM MY-8 and analyzed at various times (0, 4, 24, 48, 72 and 96 h). To validate cell viability, a Trypan Blue exclusion test was performed following treatment at 48 h and 96 h post treatment and the proportion of live versus dead cells was calculated using a hemocytometer.
(§1) Quantitative RT-PCR. Total RNA was extracted from NBEB cells according to manufacturer's instructions (RNeasy Plus Mini Extraction kit (#74134) (Qiagen, CA). RNA (1 μg) was reverse transcribed into cDNA using the cDNA synthesis High-Capacity RNA-to-cDNA™ Kit. Quantitative PCR was performed using Fast SYBR™ Green Master Mix according to the manufacturer's protocol. Beta-actin was used as a housekeeping gene. Relative expression was calculated using the 2(−ΔCt) method. The qPCR primer sequences can be found in supplementary materials.

[8] = test system: MYCNOS001 and MYCNOS002 transcripts; test: qRT-PCR of MYCNOS transcripts in NBEB cells; assay type: cell-based
Description: To examine the effects of G4-binding compounds on NBEB cells, live-cell imaging was performed using an Incucyte interface (described below). NBEB (5K/well), cells were seeded into 96-well plates in triplicate, treated with compound MY-8 at various concentrations (0-45 μM), and cultured until control wells reached confluence. […] To validate cell viability, a Trypan Blue exclusion test was performed following treatment at 48 h and 96 h post treatment and the proportion of live versus dead cells was calculated using a hemocytometer.
as §1

[9] = NBEB cells, 24, 36, 48 h, higher concentrations

## COc1ccc(-c2noc(-c3ccc(NCCCNc4c5ccc(Cl)cc5nc5ccc(OC)cc45)nn3)n2)cc1 [B33, N^1-(6-chloro-2-methoxyacridin-9-yl)-N^3-(6-(3-(4-methoxyphenyl)-1,2,4-oxadiazol-5-yl)pyridazin-3-yl)propane-1,3-diamine]
[1]
  Kd: 0.066 ± 0.007 µM
[2]
  binding to MANGO II RNA G4 by SPR: weak binding
[3]
  binding to dsDNA/ssDNA in microarray: no binding to dsDNA/ssDNA was observed
  binding to hairpin containing G4 DNAs hTERT and BCL2 in microarray: didn't show fluorescence
[3]; fluorescent compound incubated 1 h
  binding pattern in G4 microarray: only MYCN spots lighted up
[4]
  binding to dsDNA on SPR: did not show any binding to dsDNA

## COc1ccc(-c2noc(-c3ccc(NCCCN4CCCC4)nn3)n2)cc1 [MY-1, 6-(3-(4-methoxyphenyl)-1,2,4-oxadiazol-5-yl)-N-(3-(pyrrolidin-1-yl)propyl)pyridazin-3-amine]
[5]
  binding affinities (KD) to other G4s: no significant quenching behavior
[6]
  Kd: 8.1 ± 1.7 µM

## COc1ccc(-c2noc(-c3ccc(NCCCN4CCCCCC4)nn3)n2)cc1 [MY-8, N-(3-(azepan-1-yl)propyl)-6-(3-(4-methoxyphenyl)-1,2,4-oxadiazol-5-yl)pyridazin-3-amine]
[7]
  MYCN mRNA level: clear decreases of mRNA level
[8]; [9]
  MYCNOS001 mRNA level: clear decreases of mRNA level
  MYCNOS002 mRNA level: clear decreases of mRNA level
[8]; NBEB cells, time course
  onset of MYCNOS002 decrease: decreased as early as 24 h
